Data on two compounds can be found in patent US20050113274A1, “Hydrocarbyl aminohydrocarbonoates and aminohydrocarbonol hydrocarbonoates as antimicrobial and antiviral agents” (priority 2003, published 2005).

One assay relates to Streptococcus aureus. Kind of assay: USP Antimicrobial Preservatives Effectiveness Test, S. aureus. It counts as cell-based. Conditions: DDAIP formulation of Example 1. The text has this:
(§1) Thus, in the presence of Pseudomonas aeruginosa, […], Candida albicans, Streptococcus aureus, and Escherichia coli after 7 days of study less than 10 cfu/ml remained, with Aspergillus niger this value was observed after 21 days of study.

The next assay deals with stratum corneum proteins. The note with it: FIG. 1; compared with control; cited from earlier work.
In the next assay the test system is Escherichia coli. Kind of assay: USP Antimicrobial Preservatives Effectiveness Test, E. coli. It counts as cell-based. Conditions: DDAIP formulation of Example 1.
From the text: as §1

The test system of a further assay is Candida albicans. In words: USP Antimicrobial Preservatives Effectiveness Test, C. albicans. Type of assay: cell-based. The note with it: DDAIP formulation of Example 1.
From the text: as §1

In another assay the test system is Pseudomonas aeruginosa. Kind of assay: USP Antimicrobial Preservatives Effectiveness Test, P. aeruginosa. Type of assay: cell-based. The note with it: DDAIP formulation of Example 1.
From the text: as §1

A further assay relates to Aspergillus niger. Kind of assay: USP Antimicrobial Preservatives Effectiveness Test, A. niger. The note with it: DDAIP formulation of Example 1. Type of assay: cell-based.
From the text: as §1

The test system of another assay is microorganism growth. Kind of assay: Visual microorganism growth testing of formulations. It counts as cell-based. The note with it: room temperature and refrigerator conditions; test period of 2 months. The procedure: Additional formulations (such as in the examples that follow) were prepared and submitted to visual microorganism growth testing at room temperature (RT) and refrigerator conditions. The examples given below constitute some typical samples of various formulations prepared and tested.

Molecules are shown by their SMILES. A value given as a limit tells only on which side of the number the result lay.

For the compound `CCCCCCCCCCCCOC(=O)C(C)N(C)C` (stereo not shown) [DDAIP, Dodecyl 2-(N,N-dimethylamino)propionate], the “S. aureus (cfu/ml), 7 days” value in the assay with Streptococcus aureus (7 days) is given as <10 cfu/ml. Further, in the assay with Streptococcus aureus (14 days), the “S. aureus (cfu/ml), 14 days” value is recorded as <10 cfu/ml. For the same compound, the “S. aureus (cfu/ml), 21 days” value with Streptococcus aureus (21 days) is <10 cfu/ml. The “S. aureus (cfu/ml), 28 days” value in the assay with Streptococcus aureus (28 days) is <10 cfu/ml. Moreover, the “S. aureus (cfu/ml), Time Zero” value in the assay with Streptococcus aureus (day zero count) was found to be 6.90E+05 cfu/ml. Besides, the “number of free thiol groups of stratum corneum proteins (effect on protein domain)” value in the assay on stratum corneum proteins is “effect on the protein domain”. The “E. coli (cfu/ml), 7 days” value with Escherichia coli (7 days) is reported as <1 cfu/ml. Further, the “E. coli (cfu/ml), 14 days” value with Escherichia coli (14 days) is given as <1 cfu/ml. For the same compound, the “E. coli (cfu/ml), Time Zero” value in the assay on Escherichia coli (day zero count) was 5.70E+05 cfu/ml. Moreover, the “C. albicans (cfu/ml), 7 days” value with Candida albicans (7 days) is <10 cfu/ml. In addition, the “C. albicans (cfu/ml), 14 days” value in the assay on Candida albicans (14 days) is given as <10 cfu/ml. The “C. albicans (cfu/ml), Time Zero” value in the assay with Candida albicans (day zero count) is listed as 3.45E+05 cfu/ml. Besides, the “P. aeruginosa (cfu/ml), 7 days” value in the assay with Pseudomonas aeruginosa (7 days) was <10 cfu/ml. Further, the “P. aeruginosa (cfu/ml), 14 days” value in the assay on Pseudomonas aeruginosa (14 days) is <10 cfu/ml. Besides, the “P. aeruginosa (cfu/ml), 21 days” value in the assay on Pseudomonas aeruginosa (21 days) is given as <10 cfu/ml. Besides, in the assay with Pseudomonas aeruginosa (28 days), the “P. aeruginosa (cfu/ml), 28 days” value is given as <10 cfu/ml. The “P. aeruginosa (cfu/ml), Time Zero” value with Pseudomonas aeruginosa (day zero count) was found to be 3.55E+05 cfu/ml. In addition, the “A. niger (cfu/ml), 7 days” value in the assay with Aspergillus niger (7 days) came out at 1.40E+03 cfu/ml. Also, the “A. niger (cfu/ml), 14 days” value in the assay with Aspergillus niger (14 days) is 3.00E+02 cfu/ml. Moreover, the “A. niger (cfu/ml), Time Zero” value in the assay with Aspergillus niger (day zero count) is recorded as 3.05E+05 cfu/ml. Besides, in the assay on microorganism growth, the visual microorganism growth result was “no growth was observed”.
In the case of `CCO` [ethanol, reference compound], in the assay with stratum corneum proteins, the “number of free thiol groups of stratum corneum proteins (effect on protein domain)” value is recorded as “affects protein domain”.
